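Compound exposure: 48 hours, 5 concentrations, 96-well plates. Here, GI50 denotes the concentration required for 50% inhibition of growth.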 Calls of active or inactive are those of the source. No stated cut-off is given here; in the data, active = GI50 up to about 1.1 µM and inactive = higher.
Legend:
Assay in all cases: DTP human tumour cell line panel, 48 h
PC-3 = test system: PC-3
A498 = test system: A498
NCI-H23 = test system: NCI-H23
Hs-578T = test system: Hs-578T
SW-620 = test system: SW-620
A549 = test system: A549
HOP-92 = test system: HOP-92
KM12 = test system: KM12
UO-31 = test system: UO-31
NCI-H226 = test system: NCI-H226
SF-539 = test system: SF-539
NCI/ADR-RES = test system: NCI/ADR-RES
UACC-62 = test system: UACC-62
MCF7 = test system: MCF7
SK-MEL-2 = test system: SK-MEL-2
COLO 205 = test system: COLO 205
HL-60 = test system: HL-60
OVCAR-8 = test system: OVCAR-8
HCC 2998 = test system: HCC 2998
SF-268 = test system: SF-268

Measured: GI50

CCC/N=C/c1c(O)c(O)c(C(C)C)c2cc(C)c(-c3c(C)cc4c(C(C)C)c(O)c(O)c(/C=N/CCC)c4c3O)c(O)c12
inactive: PC-3 2.48 µM | A498 11.2 µM | NCI-H23 6.1 µM | Hs-578T 69.3 µM | SW-620 6.55 µM | A549 8.05 µM | HOP-92 2.49 µM | KM12 3.45 µM | UO-31 6.3 µM | NCI-H226 14.6 µM | SF-539 5.65 µM | NCI/ADR-RES 30.1 µM | UACC-62 5.78 µM | MCF7 14.7 µM | SK-MEL-2 2.76 µM | COLO 205 5.25 µM | HL-60 3.01 µM | OVCAR-8 6.46 µM | HCC 2998 8.61 µM | SF-268 6.92 µM

C=C1c2nc3ccccc3n2C=C(c2ccc(Cl)cc2)N1c1ccc(OCCN2CCOCC2)cc1
inactive: PC-3 10.5 µM | A498 > 100 µM | NCI-H23 28.2 µM | Hs-578T 19.5 µM | SW-620 22 µM | A549 27.4 µM | HOP-92 50.8 µM | KM12 11.4 µM | UO-31 33.4 µM | NCI-H226 > 100 µM | SF-539 55.3 µM | NCI/ADR-RES 12.3 µM | UACC-62 19.9 µM | MCF7 10.7 µM | SK-MEL-2 6.73 µM | COLO 205 18.9 µM | HL-60 7.91 µM | HCC 2998 37.9 µM | SF-268 34.7 µM

O=C(O)c1ccc(CI)cc1
inactive: PC-3 15.1 µM | A498 20.8 µM | NCI-H23 12.7 µM | Hs-578T 41 µM | SW-620 14.6 µM | A549 17.6 µM | HOP-92 15.8 µM | UO-31 18 µM | NCI-H226 22.2 µM | SF-539 18 µM | NCI/ADR-RES 16.1 µM | UACC-62 10.8 µM | MCF7 14.3 µM | SK-MEL-2 17.9 µM | COLO 205 15.4 µM | HL-60 20.8 µM | OVCAR-8 21.9 µM | HCC 2998 18 µM | SF-268 15.4 µM

CCc1c(O)nc(Nc2nc3ccccc3[nH]2)[nH]c1=O
inactive: PC-3 > 100 µM | A498 > 100 µM | NCI-H23 > 100 µM | Hs-578T > 100 µM | SW-620 > 100 µM | A549 > 100 µM | HOP-92 27.7 µM | UO-31 > 100 µM | NCI-H226 > 100 µM | SF-539 > 100 µM | NCI/ADR-RES > 100 µM | UACC-62 > 100 µM | MCF7 > 100 µM | SK-MEL-2 > 100 µM | COLO 205 > 100 µM | HL-60 > 100 µM | OVCAR-8 > 100 µM | HCC 2998 > 100 µM | SF-268 > 100 µM
